Reference: ChEMBL document CHEMBL4823255, “Discovery of novel potent migrastatic Thiazolo[5,4-b]pyridines targeting Lysyl-tRNA synthetase (KRS) for treatment of Cancer metastasis” (Eur J Med Chem, 2021)
Values belong to the compound of their own block, whether it stands above or below them. Active and inactive are the calls of the source. The calls are words filed in the database; no cut-off is given here.

Experiments:
MDA-MB-231 [1] = test: Antimigratory activity against tetracycline-induced KRS T52D mutant overexpressing human MDA-MB-231 cells assessed as inhibition of cell migration at 3 uM measured after 4 hrs by flourescence plate reader method; assay type: functional
[2] = Permeability of the compound at 50 uM measured after 4 hrs by PAMPA assay; assay type: ADME; conditions: read-out: permeability
[3] = Half life in mouse at 5 mg/kg, iv measured after 24 hrs; assay type: ADME, organism-based; conditions: in vivo
[4] = AUC(t) in mouse at 5 mg/kg, po measured after 24 hrs; assay type: ADME, organism-based; design: route oral, time 24 hrs, dose 5 mg/kg; conditions: in vivo
[5] = AUC(infinity) in mouse at 5 mg/kg, po measured after 24 hrs; assay type: ADME, organism-based; design: route oral, dose 5 mg/kg, time 24 hrs; conditions: in vivo
[6] = Oral bioavailability in mouse at 5 mg/kg measured after 24 hrs; assay type: ADME, organism-based; conditions: in vivo
[7] = Half life in mouse at 5 mg/kg, po measured after 24 hrs; assay type: ADME, organism-based; conditions: in vivo
[8] = Volume of distribution at steady state in mouse at 5 mg/kg, iv measured after 24 hrs; assay type: ADME, organism-based; conditions: in vivo, read-out: Vdss
[9] = Tmax in mouse at 5 mg/kg, po measured after 24 hrs; assay type: ADME, organism-based; conditions: in vivo
[10] = Cmax in mouse at 5 mg/kg, po measured after 24 hrs; assay type: ADME, organism-based; design: route oral, dose 5 mg/kg, time 24 hrs; conditions: in vivo
CYP3A4 = CYP3A4 (Homo sapiens, UniProt P08684); test: Inhibition of CYP3A4 (unknown origin) assessed as enzyme residual activity at 10 uM; assay type: ADME; conditions: read-out: Activity
[11] = AUC(t) in mouse at 5 mg/kg, iv measured after 24 hrs; assay type: ADME, organism-based; design: route intravenous, dose 5 mg/kg, time 24 hrs; conditions: in vivo
CYP2C19 = CYP2C19 (Homo sapiens, UniProt P33261); test: Inhibition of CYP2C19 (unknown origin) assessed as enzyme residual activity at 10 uM; assay type: ADME; conditions: read-out: Activity
MDA-MB-231 [12] = test: Antimigratory activity against tetracycline-induced KRS T52D mutant overexpressing human MDA-MB-231 cells assessed as inhibition of cell migration measured after 4 hrs by flourescence plate reader method; assay type: functional, cell-based; conditions: MDA-MB-231, 4 h
[13] = Metabolic stability in dog liver microsomes assessed as parent compound remaining measured after 30 mins; assay type: ADME, Canis lupus familiaris, Microsome; conditions: read-out: Stabilty
[14] = Metabolic stability in human liver microsomes assessed as parent compound remaining measured after 30 mins; assay type: ADME, Microsome; conditions: read-out: Stabilty
CYP1A2 = biological target: T1, CYP1A2 (Homo sapiens, UniProt P05177); test: Inhibition of CYP1A2 (unknown origin) assessed as enzyme residual activity at 10 uM; assay type: ADME; conditions: read-out: Activity
T1 sequence (P05177 whole entry): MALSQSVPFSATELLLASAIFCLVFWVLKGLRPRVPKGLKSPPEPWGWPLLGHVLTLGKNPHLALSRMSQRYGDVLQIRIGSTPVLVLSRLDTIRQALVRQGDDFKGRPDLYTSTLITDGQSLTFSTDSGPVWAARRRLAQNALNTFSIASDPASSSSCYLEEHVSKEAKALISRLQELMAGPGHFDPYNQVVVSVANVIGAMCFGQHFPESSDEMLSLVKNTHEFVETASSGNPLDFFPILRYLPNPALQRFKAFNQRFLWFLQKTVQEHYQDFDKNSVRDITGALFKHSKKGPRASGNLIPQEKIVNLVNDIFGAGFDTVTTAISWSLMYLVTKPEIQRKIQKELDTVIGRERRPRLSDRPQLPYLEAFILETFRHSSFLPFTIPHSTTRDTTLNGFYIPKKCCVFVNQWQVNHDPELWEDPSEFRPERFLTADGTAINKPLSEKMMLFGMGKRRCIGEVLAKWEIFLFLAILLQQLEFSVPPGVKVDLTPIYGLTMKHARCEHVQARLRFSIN

[15] = Metabolic stability in rat liver microsomes assessed as parent compound remaining measured after 30 mins; assay type: ADME, Microsome; conditions: read-out: Stabilty
Lysine--tRNA ligase [16] = biological target: T2, Lysine--tRNA ligase (Homo sapiens, UniProt Q15046); test: Binding affinity to human N-terminal His6-tagged 15N-labelled KRS (1 to 207 residues) expressed in Escherichia coli BL21(DE3) at 0.4 mM by 1H-15N TROSY NMR analysis
Target sequence in this assay (Q15046 2-597 limits assumed): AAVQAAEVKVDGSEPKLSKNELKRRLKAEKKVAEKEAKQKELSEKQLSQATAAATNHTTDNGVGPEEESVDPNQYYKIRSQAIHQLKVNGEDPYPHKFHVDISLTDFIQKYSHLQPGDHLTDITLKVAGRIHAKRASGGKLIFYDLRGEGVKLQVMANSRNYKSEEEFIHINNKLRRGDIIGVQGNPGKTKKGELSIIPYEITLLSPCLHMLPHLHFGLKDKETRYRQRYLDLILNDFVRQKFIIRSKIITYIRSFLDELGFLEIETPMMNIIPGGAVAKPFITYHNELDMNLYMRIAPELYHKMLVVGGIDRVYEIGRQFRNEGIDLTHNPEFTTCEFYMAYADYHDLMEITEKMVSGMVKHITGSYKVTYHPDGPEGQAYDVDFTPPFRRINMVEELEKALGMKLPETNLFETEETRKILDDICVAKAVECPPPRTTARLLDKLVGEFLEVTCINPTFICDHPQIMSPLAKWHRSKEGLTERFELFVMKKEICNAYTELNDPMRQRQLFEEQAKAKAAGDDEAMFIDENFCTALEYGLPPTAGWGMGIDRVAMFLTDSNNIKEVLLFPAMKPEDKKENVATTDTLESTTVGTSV

Lysine--tRNA ligase [17] = biological target: T2, Lysine--tRNA ligase; test: Binding affinity to human N-terminal His6-tagged 15N-labelled KRS (1 to 207 residues) expressed in Escherichia coli BL21(DE3) measured by flourescence based binding titration assay
Target sequence in this assay (Q15046 whole entry, the tested form may be a part): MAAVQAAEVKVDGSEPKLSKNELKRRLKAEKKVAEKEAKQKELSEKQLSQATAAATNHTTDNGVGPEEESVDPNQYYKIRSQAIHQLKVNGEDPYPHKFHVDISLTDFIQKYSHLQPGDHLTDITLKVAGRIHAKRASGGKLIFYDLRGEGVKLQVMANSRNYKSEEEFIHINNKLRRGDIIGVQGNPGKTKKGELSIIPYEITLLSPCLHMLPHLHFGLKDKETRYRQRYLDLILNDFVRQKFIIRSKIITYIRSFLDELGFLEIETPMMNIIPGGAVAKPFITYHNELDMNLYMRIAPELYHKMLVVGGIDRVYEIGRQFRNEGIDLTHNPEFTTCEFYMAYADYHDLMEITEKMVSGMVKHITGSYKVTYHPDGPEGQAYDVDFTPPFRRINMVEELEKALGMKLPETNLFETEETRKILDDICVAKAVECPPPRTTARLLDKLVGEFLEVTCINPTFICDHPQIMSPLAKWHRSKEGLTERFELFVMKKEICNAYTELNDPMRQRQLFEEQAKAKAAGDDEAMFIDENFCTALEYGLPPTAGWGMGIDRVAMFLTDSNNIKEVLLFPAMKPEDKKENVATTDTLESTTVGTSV

[18] = AUC(infinity) in mouse at 5 mg/kg, iv measured after 24 hrs; assay type: ADME, organism-based; design: route intravenous, time 24 hrs, dose 5 mg/kg; conditions: in vivo
[19] = Metabolic stability in mouse liver microsomes assessed as parent compound remaining measured after 30 mins; assay type: ADME, Microsome; conditions: read-out: Stabilty
4T1 = test: Anti-metastasis activity in mouse 4T1 cells xenografted in BALB/cAnCr mouse at 100 mg/kg, po administered for 16 days; assay type: functional, organism-based; conditions: time 16.0 day
[20] = Toxicity in Balb/cAnCr mouse xenografted with mouse 4T1 cells assessed as change in body weight at 100 mg/kg, po administered for 16 days; assay type: organism-based; conditions: in vivo, 384 h, time 16 day
CYP2D6 = CYP2D6 (Homo sapiens, UniProt P10635); test: Inhibition of CYP2D6 (unknown origin) assessed as enzyme residual activity at 10 uM; assay type: ADME; conditions: read-out: Activity
[21] = Clearance in mouse at 5 mg/kg, iv measured after 24 hrs; assay type: ADME, organism-based; conditions: in vivo
CYP2C9 = CYP2C9 (Homo sapiens, UniProt P11712); test: Inhibition of CYP2C9 (unknown origin) assessed as enzyme residual activity at 10 uM; assay type: ADME; conditions: read-out: Activity
NCI-H226 = test: Antimigratory activity against human NCI-H226 cells assessed as inhibition of cell migration measured after 12 hrs by Transwell assay; assay type: functional, cell-based; conditions: NCI-H226, 12 h

Chain of CYP2C9 (P11712 whole entry): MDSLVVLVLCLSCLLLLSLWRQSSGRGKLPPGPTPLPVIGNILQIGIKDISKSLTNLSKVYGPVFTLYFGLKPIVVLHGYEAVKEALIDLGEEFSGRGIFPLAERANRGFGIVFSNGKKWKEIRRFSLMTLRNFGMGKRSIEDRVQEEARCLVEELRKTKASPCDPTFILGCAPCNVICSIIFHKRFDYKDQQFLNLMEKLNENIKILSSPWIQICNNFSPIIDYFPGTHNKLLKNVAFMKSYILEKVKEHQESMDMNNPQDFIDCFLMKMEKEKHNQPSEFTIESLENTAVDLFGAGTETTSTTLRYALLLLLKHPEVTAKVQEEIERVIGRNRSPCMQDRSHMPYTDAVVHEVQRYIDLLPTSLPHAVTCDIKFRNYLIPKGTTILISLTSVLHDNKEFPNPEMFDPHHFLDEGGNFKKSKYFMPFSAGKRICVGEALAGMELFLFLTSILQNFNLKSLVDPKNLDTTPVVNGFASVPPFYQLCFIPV
Chain of CYP2C19 (P33261 whole entry): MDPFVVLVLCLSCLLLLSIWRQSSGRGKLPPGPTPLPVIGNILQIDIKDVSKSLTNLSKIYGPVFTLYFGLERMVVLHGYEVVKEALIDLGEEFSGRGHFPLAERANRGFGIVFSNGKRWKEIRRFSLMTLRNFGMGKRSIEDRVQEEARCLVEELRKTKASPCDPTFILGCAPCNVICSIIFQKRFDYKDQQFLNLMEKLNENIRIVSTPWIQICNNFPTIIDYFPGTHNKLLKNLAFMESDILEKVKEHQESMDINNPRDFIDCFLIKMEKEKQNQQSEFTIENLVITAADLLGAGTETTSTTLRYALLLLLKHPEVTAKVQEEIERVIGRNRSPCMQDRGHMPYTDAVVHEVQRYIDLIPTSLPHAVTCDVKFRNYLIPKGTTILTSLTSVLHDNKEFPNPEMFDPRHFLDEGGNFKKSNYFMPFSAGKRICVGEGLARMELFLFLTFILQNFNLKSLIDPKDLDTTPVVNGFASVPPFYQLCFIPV
Chain of CYP3A4 (P08684 whole entry): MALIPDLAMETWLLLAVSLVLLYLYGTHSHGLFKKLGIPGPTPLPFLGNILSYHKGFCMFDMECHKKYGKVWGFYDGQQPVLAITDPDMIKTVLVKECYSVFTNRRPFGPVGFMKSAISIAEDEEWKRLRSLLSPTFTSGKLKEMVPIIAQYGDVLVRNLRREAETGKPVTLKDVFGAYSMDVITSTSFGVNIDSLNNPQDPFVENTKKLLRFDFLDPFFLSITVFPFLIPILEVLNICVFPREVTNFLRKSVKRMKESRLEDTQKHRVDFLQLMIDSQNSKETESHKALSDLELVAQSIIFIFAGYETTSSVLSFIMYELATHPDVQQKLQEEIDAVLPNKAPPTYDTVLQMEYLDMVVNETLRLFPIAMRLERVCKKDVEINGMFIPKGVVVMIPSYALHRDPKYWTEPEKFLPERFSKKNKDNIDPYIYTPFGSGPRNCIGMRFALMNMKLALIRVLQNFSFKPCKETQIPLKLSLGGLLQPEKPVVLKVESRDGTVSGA
Chain of CYP2D6 (P10635 whole entry): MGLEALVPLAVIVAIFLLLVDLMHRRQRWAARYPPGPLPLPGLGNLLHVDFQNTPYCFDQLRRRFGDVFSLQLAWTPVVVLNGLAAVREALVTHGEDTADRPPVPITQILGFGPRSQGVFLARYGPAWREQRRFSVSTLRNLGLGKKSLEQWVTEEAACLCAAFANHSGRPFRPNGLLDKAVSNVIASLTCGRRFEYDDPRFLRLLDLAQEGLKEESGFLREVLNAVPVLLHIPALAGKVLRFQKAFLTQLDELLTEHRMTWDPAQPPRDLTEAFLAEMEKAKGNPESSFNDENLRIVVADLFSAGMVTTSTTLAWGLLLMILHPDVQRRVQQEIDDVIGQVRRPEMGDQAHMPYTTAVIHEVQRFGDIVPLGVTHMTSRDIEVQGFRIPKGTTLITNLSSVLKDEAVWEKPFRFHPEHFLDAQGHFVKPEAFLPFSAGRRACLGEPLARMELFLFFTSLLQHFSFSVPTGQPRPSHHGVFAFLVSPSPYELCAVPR

SMILES: COc1ccc(CCN(Cc2ccc(C(=O)O)cc2)c2nc3ccc(C(=O)O)cc3s2)cc1
Activity (MDA-MB-231 [1]): inactive

SMILES: Cc1cc(=O)n(-c2ccccc2)n1C [ANTIPYRINE]
Papp at 4 h, 50 µM [2]: 1.94 ×10⁻⁶ cm/s

SMILES: COc1ccc(CCN(Cc2ccc(C(=O)O)cc2)c2nc3ncccc3s2)cc1
Activity (MDA-MB-231 [1]): inactive

SMILES: COc1ccc(CCN(Cc2ccc(C(=O)O)cc2)c2nc3ccc[n+]([O-])c3s2)cc1
Activity (MDA-MB-231 [1]): inactive

half-life [3]: 6.05 h
AUC(0-t) at 24 h [4]: 168 ng·h/mL
AUC(0-inf) [5]: 192 ng·h/mL
bioavailability [6]: 87.9%
half-life [7]: 1.56 h
Vd [8]: 149 L/kg
Tmax [9]: 4.17 h
Cmax [10]: 40 ng/mL
activity at 10 µM (CYP3A4): 98.4%
AUC(0-t) at 24 h [11]: 191 ng·h/mL
activity at 10 µM (CYP2C19): 92.2%
EC50 (MDA-MB-231 [12]): 0.081 µM
remaining at 0.5 h [13]: 79.5%
remaining at 0.5 h [14]: 62.8%
activity at 10 µM (CYP1A2): 91.1%
remaining at 0.5 h [15]: 73%
Activity (Lysine--tRNA ligase [16]): Active
Kd (Lysine--tRNA ligase [17]): 5.75 µM
AUC(0-inf) [18]: 216 ng·h/mL
remaining at 0.5 h [19]: 65.8%
Papp at 4 h, 50 µM [2]: 22.2 ×10⁻⁶ cm/s
activity at 10 µM (CYP2D6): 97.9%
clearance [21]: 392 mL/min/kg
activity at 10 µM (CYP2C9): 74.6%
SMILES: COc1ccc(CCN(Cc2ccc(C(=O)O)cc2)c2nc3cccnc3s2)cc1
inhibition at 3 µM (MDA-MB-231 [1]): 70%
Activity (4T1): Active
Activity [20]: Non-Toxic

Activity (Lysine--tRNA ligase [16]): Active
Kd (Lysine--tRNA ligase [17]): 49.2 µM
EC50 (NCI-H226): 8.5 µM
SMILES: CCC(C(=O)O)n1/c(=N/C(=O)c2cccc(C(F)(F)F)c2)sc2cc(F)c(F)cc21 (centres undefined)

SMILES: COc1ccc(CCN(Cc2ccc(C(=O)O)cc2)c2nc3cc(Cl)cnc3s2)cc1
Activity (MDA-MB-231 [1]): inactive

SMILES: COc1ccc(CCN(Cc2ccc(C(=O)O)cc2)c2nc3cncnc3s2)cc1
Activity (MDA-MB-231 [1]): inactive

SMILES: COc1ccc(CCN(Cc2ccc(C(=O)O)cc2)c2nc3cc([N+](=O)[O-])ccc3o2)cc1
Activity (MDA-MB-231 [1]): Active

SMILES: COc1ccc(CCN(Cc2ccc(C(=O)O)cc2)c2nc3cc(NC(=O)c4ccc(N5CCN(C)CC5)cc4)ccc3o2)cc1
Activity (MDA-MB-231 [1]): inactive

SMILES: COc1ccc(CCN(Cc2ccc(C(=O)O)cc2)c2nc3cc(F)cc(F)c3[nH]2)cc1
Activity (MDA-MB-231 [1]): inactive

SMILES: COc1ccc(CCN(Cc2ccc(C(=O)O)cc2)c2nc3ccc(CO)cc3s2)cc1
Activity (MDA-MB-231 [1]): inactive

SMILES: COc1ccc(CCN(Cc2ccc(C(=O)O)cc2)c2nc3cc(F)c(F)c(F)c3s2)cc1
inhibition at 3 µM (MDA-MB-231 [1]): 28%

SMILES: COc1ccc(CCN(Cc2ccc(C(=O)O)cc2)c2nc3cccnc3o2)cc1
Activity (MDA-MB-231 [1]): Active

SMILES: CC(=O)N1CCN(c2ccc(OCC3COC(Cn4ccnc4)(c4ccc(Cl)cc4Cl)O3)cc2)CC1 (centres undefined) [KETOCONAZOLE]
activity at 10 µM (CYP3A4): 31.8%
activity at 10 µM (CYP2C19): > 100%
activity at 10 µM (CYP1A2): > 100%
activity at 10 µM (CYP2C9): > 100%

SMILES: COc1ccc(CCN(Cc2ccc(C(=O)O)cc2)c2nc3cnccc3s2)cc1
Activity (MDA-MB-231 [1]): inactive

SMILES: COc1ccc(CCN(Cc2ccc(C(=O)O)cc2)c2nc3cc(NC(=O)Cc4ccc(OC)cc4)ccc3o2)cc1
Activity (MDA-MB-231 [1]): Active

SMILES: COc1ccc(CCN(Cc2ccc(C(=O)O)cc2)c2nc3ccccc3o2)cc1
Activity (MDA-MB-231 [1]): Active
